Data reported in patent publication US7553966B2, “Glucocorticoid mimetics, methods of making them, pharmaceutical compositions, and uses thereof” (Boehringer Ingelheim Pharmaceuticals, Inc., priority 2002, dated 2009).

target: T1, human glucocorticoid receptor (GR) complex (Homo sapiens, UniProt P04150); assay: Glucocorticoid Receptor Competitive Binding Assay (fluorescence polarization, TAMRA-labeled dexamethasone probe); details: qualitative statement; competition with TAMRA-labeled dexamethasone
T1 construct: made in house; host or cells: insect expression system (baculovirus lysate)
T1 sequence (P04150 1-777): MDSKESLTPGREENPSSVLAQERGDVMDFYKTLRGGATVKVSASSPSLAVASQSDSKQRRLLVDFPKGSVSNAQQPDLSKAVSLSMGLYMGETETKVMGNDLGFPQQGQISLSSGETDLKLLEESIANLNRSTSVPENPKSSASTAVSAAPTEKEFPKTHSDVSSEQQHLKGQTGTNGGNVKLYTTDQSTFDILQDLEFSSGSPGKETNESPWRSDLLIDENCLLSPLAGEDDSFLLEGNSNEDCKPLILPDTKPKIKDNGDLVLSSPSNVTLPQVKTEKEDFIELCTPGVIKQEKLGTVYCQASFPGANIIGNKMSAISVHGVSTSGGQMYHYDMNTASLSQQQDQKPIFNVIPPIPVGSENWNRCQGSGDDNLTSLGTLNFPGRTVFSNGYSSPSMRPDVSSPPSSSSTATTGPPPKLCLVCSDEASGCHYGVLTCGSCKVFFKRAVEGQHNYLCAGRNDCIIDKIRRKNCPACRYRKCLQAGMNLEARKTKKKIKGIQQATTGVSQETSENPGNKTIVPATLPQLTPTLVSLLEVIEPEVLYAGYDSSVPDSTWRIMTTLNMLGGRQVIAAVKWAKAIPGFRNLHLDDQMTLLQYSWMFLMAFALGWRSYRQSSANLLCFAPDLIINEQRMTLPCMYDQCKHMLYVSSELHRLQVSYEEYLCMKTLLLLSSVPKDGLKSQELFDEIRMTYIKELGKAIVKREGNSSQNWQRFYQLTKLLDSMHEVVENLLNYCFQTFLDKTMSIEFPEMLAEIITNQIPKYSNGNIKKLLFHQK
Description: Compounds of the invention were evaluated for binding to the steroid receptor by a fluorescence polarization competitive binding assay.
A. Glucocorticoid Receptor Competitive Binding Assay
Step 1. Characterization of the Fluorescent Probe
The wavelengths for maximum excitation and emission of the fluorescent probe should first be measured. An example of such a probe is rhodamine (TAMRA)-labeled dexamethasone.
The affinity of the probe for the steroid receptor was then determined in a titration experiment. The fluorescence polarization value of the probe in assay buffer was measured on an SLM-8100 fluorometer using the excitation and emission maximum values described above. Aliquots of expression vector lysate were added and fluorescence polarization was measured after each addition until no further change in polarization value was observed. Non-linear least squares regression analysis was used to calculate the dissociation constant of the probe from the polarization values obtained for lysate binding to the probe.
Step 2. Screening for Inhibitors of Probe Binding
This assay uses fluorescence polarization (FP) to quantitate the ability of test compounds to compete with tetramethyl rhodamine (TAMRA)-labeled dexamethasone for binding to a human glucocorticoid receptor (GR) complex prepared from an insect expression system. The assay buffer was: 10 mM TES, 50 mM KCl, 20 mM Na2MoO4. 2H2O, 1.5 mM EDTA, 0.04% w/v CHAPS, 10% v/v glycerol, 1 mM dithiothreitol, pH 7.4. Test compounds were dissolved to 1 mM in neat DMSO and then further diluted to 10× assay concentration in assay buffer supplemented with 10% v/v DMSO. Test compounds were serially diluted at 10× assay concentrations in 10% DMSO-containing buffer in 96-well polypropylene plates. […] Positive controls were reaction mixtures containing no test compound; negative controls (blanks) were reaction mixtures containing 0.7 μM to 2 μM dexamethasone. […] IC50 values were determined by iterative non-linear curve fitting of the FP signal data to a 4-parameter logistic equation.

Structure (SMILES) | activity in the GR binding assay
Cc1ccc(F)cc1C(C)(C)CC(O)(Cc1nc2cccc(C)c2[nH]1)C(F)(F)F (stereo not drawn) [1,1,1-Trifluoro-4-(5-fluoro-2-methylphenyl)-4-methyl-2-(7-methyl-1H-benzoimidazol-2-ylmethyl)pentan-2-ol] | potent activity
Cc1ccc(C(C)(C)CC(O)(Cc2ccnc3ccccc23)C(F)(F)F)cc1 (stereo not drawn) [1,1,1-Trifluoro-4-methyl-2-quinolin-4-ylmethyl-4-p-tolylpentan-2-ol] | potent activity
CC(C)(CC(O)(Cc1ccnc2ccccc12)C(F)(F)F)c1ccsc1 (stereo not drawn) [1,1,1-Trifluoro-4-methyl-2-quinolin-4-ylmethyl-4-thiophen-3-ylpentan-2-ol] | potent activity
CC(C)(CC(O)(Cc1ccnc2ccccc12)C(F)(F)F)c1ccc2ccccc2c1 (stereo not drawn) [1,1,1-Trifluoro-4-methyl-4-naphthalen-2-yl-2-quinolin-4-ylmethylpentan-2-ol] | potent activity
COc1ccc(F)cc1C(C)(C)CC(O)(Cc1cc2ccccc2[nH]1)CC1CC1 (stereo not drawn) [1-Cyclopropyl-4-(5-fluoro-2-methoxyphenyl)-2-(indol-2-ylmethyl)-4-methylpentan-2-ol] | potent activity
CC(C)(CC(O)(Cn1cc(C#N)c2ccccc21)C(F)(F)F)c1cccc2c1OCC2 (stereo not drawn) [1-[4-(2,3-Dihydrobenzofuran-7-yl)-2-hydroxy-4-methyl-2-trifluoromethylpentyl]-1H-indole-3-carbonitrile] | potent activity
COc1ccc(F)cc1C(C)(C)CC(O)(Cn1cc(C#N)c2ccccc21)C(F)(F)F (stereo not drawn) [1-[4-(5-Fluoro-2-methoxyphenyl)-2-hydroxy-4-methyl-2-trifluoromethylpentyl]-1H-indole-3-carbonitrile] | potent activity
COc1ccc(F)cc1C(C)(C)CC(O)(Cc1nc2ccccc2[nH]1)C(F)(F)F (stereo not drawn) [2-(1H-Benzimidazol-2-ylmethyl)-1,1,1-trifluoro-4-(5-fluoro-2-methoxyphenyl)-4-methylpentan-2-ol] | potent activity
CC(C)(CC(O)(Cc1[nH]c2ccccc2c1C#N)C(F)(F)F)c1ccccc1 (stereo not drawn) [2-(2-Hydroxy-4-methyl-4-phenyl-2-trifluoromethylpentyl)-1H-indole-3-carbonitrile] | potent activity
COc1ccc(F)cc1C(C)(C)CC(O)(Cn1cc(C)nc1-c1ccccc1)C(F)(F)F (stereo not drawn) [2-(2-Phenyl-4-methylimidazol-1-ylmethyl)-1,1,1-trifluoro-4-(5-fluoro-2-methoxyphenyl)-4-methylpentan-2-ol] | potent activity
COc1ccc(F)cc1C(C)(C)CC(O)(Cn1ccnc1-c1ccccc1)C(F)(F)F (stereo not drawn) [2-(2-Phenylimidazol-1-ylmethyl)-1,1,1-trifluoro-4-(5-fluoro-2-methoxyphenyl)-4-methylpentan-2-ol] | potent activity
CC(C)(CC(O)(Cc1ccnc2ccccc12)C(F)(F)F)c1ccc2ccccc2c1O (stereo not drawn) [2-(4,4,4-Trifluoro-3-hydroxy-1,1-dimethyl-3-quinolin-4-ylmethylbutyl)naphthalen-1-ol] | potent activity
COc1ccc(F)cc1C(C)(C)CC(O)(Cc1nc2cc(C)cc(C)c2[nH]1)C(F)(F)F (stereo not drawn) [2-(5,7-Dimethyl-1H-benzoimidazol-2-ylmethyl)-1,1,1-trifluoro-4-(5-fluoro-2-methoxyphenyl)-4-methylpentan-2-ol] | potent activity
COc1ccc(F)cc1C(C)(C)CC(O)(Cc1nc2ccc(F)c(F)c2[nH]1)C(F)(F)F (stereo not drawn) [2-(6,7-Difluoro-1H-benzoimidazol-2-ylmethyl)-1,1,1-trifluoro-4-(5-fluoro-2-methoxyphenyl)-4-methylpentan-2-ol] | potent activity
CCc1cccc(C(C)(C)CC(O)(Cc2ccnc3ccccc23)C(F)(F)F)c1O (stereo not drawn) [2-Ethyl-6-(4,4,4-trifluoro-3-hydroxy-1,1-dimethyl-3-quinolin-4-ylmethylbutyl)phenol] | potent activity
CCc1cccc(C(C)(C)CC(O)(Cc2cc3ccccc3[nH]2)C(F)(F)F)c1O (stereo not drawn) [2-Ethyl-6-[4,4,4-trifluoro-3-hydroxy-3-(1H-indol-2-ylmethyl)-1,1-dimethylbutyl]phenol] | potent activity
COc1cccc(C(C)(C)CC(O)(Cc2cc3cc(C#N)ccc3[nH]2)C(F)(F)F)c1 (stereo not drawn) [2-[2-Hydroxy-4-(3-methoxyphenyl)-4-methyl-2-trifluoromethylpentyl]-1H-indole-5-carbonitrile] | potent activity
CC(C)(CC(O)(Cc1cc(Cl)nc(Cl)c1)C(F)(F)F)c1cc(F)ccc1O (stereo not drawn) [2-[3-(2,6-Dichloropyridin-4-ylmethyl)-4,4,4-trifluoro-3-hydroxy-1,1-dimethylbutyl]-4-fluorophenol] | potent activity
CC(C)(CC(O)(Cc1cc2cc(C#N)ccc2[nH]1)C(F)(F)F)c1cccc2c1OCC2 (stereo not drawn) [2-[4-(2,3-Dihydrobenzofuran-7-yl)-2-hydroxy-4-methyl-2-trifluoromethylpentyl]-1H-indole-5-carbonitrile] | potent activity
CC(C)(CC(O)(Cc1[nH]c2ccccc2c1C#N)C(F)(F)F)c1cccc(F)c1 (stereo not drawn) [2-[4-(3-Fluorophenyl)-2-hydroxy-4-methyl-2-trifluoromethylpentyl]-1H-indole-3-carbonitrile] | potent activity
CC(C)(CC(O)(Cc1cc2cc(C#N)ccc2[nH]1)C(F)(F)F)c1cccc(F)c1 (stereo not drawn) [2-[4-(3-Fluorophenyl)-2-hydroxy-4-methyl-2-trifluoromethylpentyl]-1H-indole-5-carbonitrile] | potent activity
COC(=O)c1ccc2[nH]c(CC(O)(CC(C)(C)c3ccc(F)cc3OC)C(F)(F)F)cc2c1 (stereo not drawn) [2-[4-(4-Fluoro-2-methoxyphenyl)-2-hydroxy-4-methyl-2-trifluoromethylpentyl]-1H-indole-5-carboxylic acid methyl ester] | potent activity
CC(C)(CC(O)(Cc1[nH]c2ccccc2c1C#N)C(F)(F)F)c1ccc(F)cc1 (stereo not drawn) [2-[4-(4-Fluorophenyl)-2-hydroxy-4-methyl-2-trifluoromethylpentyl]-1H-indole-3-carbonitrile] | potent activity
COC(=O)c1ccc2[nH]c(CC(O)(CC(C)(C)c3cc(Br)ccc3OC)C(F)(F)F)cc2c1 (stereo not drawn) [2-[4-(5-Bromo-2-methoxyphenyl)-2-hydroxy-4-methyl-2-trifluoromethylpentyl]-1H-indole-5-carboxylic acid methyl ester] | potent activity
COc1ccc(Br)cc1C(C)(C)CC(O)(Cc1cc2c(C)cc(C#N)cc2[nH]1)C(F)(F)F (stereo not drawn) [2-[4-(5-Bromo-2-methoxyphenyl)-2-hydroxy-4-methyl-2-trifluoromethylpentyl]-4-methyl-1H-indole-6-carbonitrile] | potent activity
COC(=O)c1ccc2[nH]c(CC(O)(CC(C)(C)c3cc(F)ccc3OC)C(F)(F)F)cc2c1 (stereo not drawn) [2-[4-(5-Fluoro-2-methoxyphenyl)-2-hydroxy-4-methyl-2-trifluoromethylpentyl]-1H-indole-5-carboxylic acid methyl ester] | potent activity
CC(C)(CC(O)(Cc1ccnc2ccccc12)C(F)(F)F)c1cccc(O)c1 (stereo not drawn) [3-(4,4,4-Trifluoro-3-hydroxy-1,1-dimethyl-3-quinolin-4-ylmethylbutyl)phenol] | potent activity
